{
  "source": "the supplement of paper PMC10307832",
  "assay_in_all_cases": "relative viability (nuclei count vs DMSO), 5 days (fraction); higher = more cells survive",
  "key": {"[1]": {"tested_on": "NCI-H1793", "outline": "(§1)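 A single step with final 0.05% Triton X-100, 1% formaldehyde and 1 ug/ml Hoechst fixed the cells and stained nuclei 5 days after treatment. Lung cancer cell lines in 1536-well plates had been treated by pin tool the day after seeding with one drug alone or a fixed anchor-drug dose plus five library-drug doses (not always all listed) in √10 steps, and nuclei were counted on 4× images. Relative viability is the ratio of nuclei in treated wells to nuclei in vehicle wells, taken as the median of duplicate plates.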"}, "[2]": {"tested_on": "SK-LU-1", "outline": "as §1"}, "[3]": {"tested_on": "NCI-H2228", "outline": "as §1"}, "[4]": {"tested_on": "NCI-H1944", "outline": "as §1"}, "[5]": {"tested_on": "ChaGo-K-1", "outline": "as §1"}, "[6]": {"tested_on": "NCI-H2126", "outline": "as §1"}, "[7]": {"tested_on": "A-427", "outline": "as §1"}, "[8]": {"tested_on": "NCI-H2023", "outline": "as §1"}, "[9]": {"tested_on": "NCI-H2405", "outline": "as §1"}, "[10]": {"tested_on": "NCI-H838", "outline": "as §1"}, "[11]": {"tested_on": "NCI-H1993", "outline": "as §1"}, "[12]": {"tested_on": "ABC-1", "outline": "as §1"}},
  "data": [
    {"smiles": "NC(=O)Nc1cc(-c2cccc(F)c2)sc1C(=O)N[C@H]1CCCNC1", "note": "[AZD7762] + Cc1nc(Nc2ncc(C(=O)Nc3c(C)cccc3Cl)s2)cc(N2CCN(CCO)CC2)n1 [Dasatinib] (partner 0.075 µM)", "values": [
      {"measurement": "relative viability", "setting": "[1]; first compound 0.1 µM", "value": 0.426},
      {"measurement": "relative viability", "setting": "[1]; first compound 0.3162 µM", "value": 0.482},
      {"measurement": "relative viability", "setting": "[1]; first compound 1 µM", "value": 0.276},
      {"measurement": "relative viability", "setting": "[2]; first compound 0.01 µM", "value": 0.183},
      {"measurement": "relative viability", "setting": "[2]; first compound 0.03162 µM", "value": 0.158},
      {"measurement": "relative viability", "setting": "[2]; first compound 0.1 µM", "value": 0.108},
      {"measurement": "relative viability", "setting": "[2]; first compound 0.3162 µM", "value": 0.126},
      {"measurement": "relative viability", "setting": "[2]; first compound 1 µM", "value": 0.128},
      {"measurement": "relative viability", "setting": "[3]; first compound 0.01 µM", "value": 0.67},
      {"measurement": "relative viability", "setting": "[3]; first compound 0.03162 µM", "value": 0.606},
      {"measurement": "relative viability", "setting": "[3]; first compound 0.1 µM", "value": 0.373},
      {"measurement": "relative viability", "setting": "[3]; first compound 0.3162 µM", "value": 0.204},
      {"measurement": "relative viability", "setting": "[3]; first compound 1 µM", "value": 0.125},
      {"measurement": "relative viability", "setting": "[4]; first compound 0.01 µM", "value": 0.231},
      {"measurement": "relative viability", "setting": "[4]; first compound 0.03162 µM", "value": 0.238},
      {"measurement": "relative viability", "setting": "[4]; first compound 0.1 µM", "value": 0.252},
      {"measurement": "relative viability", "setting": "[4]; first compound 0.3162 µM", "value": 0.256},
      {"measurement": "relative viability", "setting": "[4]; first compound 1 µM", "value": 0.232},
      {"measurement": "relative viability", "setting": "[5]; first compound 0.01 µM", "value": 0.572},
      {"measurement": "relative viability", "setting": "[5]; first compound 0.03162 µM", "value": 0.575},
      {"measurement": "relative viability", "setting": "[5]; first compound 0.1 µM", "value": 0.583},
      {"measurement": "relative viability", "setting": "[5]; first compound 0.3162 µM", "value": 0.487},
      {"measurement": "relative viability", "setting": "[5]; first compound 1 µM", "value": 0.583},
      {"measurement": "relative viability", "setting": "[6]; first compound 0.01 µM", "value": 0.658},
      {"measurement": "relative viability", "setting": "[6]; first compound 0.03162 µM", "value": 0.665},
      {"measurement": "relative viability", "setting": "[6]; first compound 0.1 µM", "value": 0.639},
      {"measurement": "relative viability", "setting": "[6]; first compound 0.3162 µM", "value": 0.648},
      {"measurement": "relative viability", "setting": "[6]; first compound 1 µM", "value": 0.402},
      {"measurement": "relative viability", "setting": "[7]; first compound 0.01 µM", "value": 0.83},
      {"measurement": "relative viability", "setting": "[7]; first compound 0.03162 µM", "value": 0.669},
      {"measurement": "relative viability", "setting": "[7]; first compound 0.1 µM", "value": 0.812},
      {"measurement": "relative viability", "setting": "[7]; first compound 0.3162 µM", "value": 0.663},
      {"measurement": "relative viability", "setting": "[7]; first compound 1 µM", "value": 0.218},
      {"measurement": "relative viability", "setting": "[8]; first compound 0.01 µM", "value": 0.513},
      {"measurement": "relative viability", "setting": "[8]; first compound 0.03162 µM", "value": 0.425},
      {"measurement": "relative viability", "setting": "[8]; first compound 0.1 µM", "value": 0.328},
      {"measurement": "relative viability", "setting": "[8]; first compound 0.3162 µM", "value": 0.159},
      {"measurement": "relative viability", "setting": "[8]; first compound 1 µM", "value": 0.0942},
      {"measurement": "relative viability", "setting": "[9]; first compound 0.01 µM", "value": 0.234},
      {"measurement": "relative viability", "setting": "[9]; first compound 0.03162 µM", "value": 0.216},
      {"measurement": "relative viability", "setting": "[9]; first compound 0.1 µM", "value": 0.228},
      {"measurement": "relative viability", "setting": "[9]; first compound 0.3162 µM", "value": 0.157},
      {"measurement": "relative viability", "setting": "[9]; first compound 1 µM", "value": 0.177},
      {"measurement": "relative viability", "setting": "[10]; first compound 0.01 µM", "value": 0.322},
      {"measurement": "relative viability", "setting": "[10]; first compound 0.03162 µM", "value": 0.276},
      {"measurement": "relative viability", "setting": "[10]; first compound 0.1 µM", "value": 0.258},
      {"measurement": "relative viability", "setting": "[10]; first compound 0.3162 µM", "value": 0.251},
      {"measurement": "relative viability", "setting": "[10]; first compound 1 µM", "value": 0.24},
      {"measurement": "relative viability", "setting": "[11]; first compound 0.01 µM", "value": 0.629},
      {"measurement": "relative viability", "setting": "[11]; first compound 0.03162 µM", "value": 0.599},
      {"measurement": "relative viability", "setting": "[11]; first compound 0.1 µM", "value": 0.481},
      {"measurement": "relative viability", "setting": "[11]; first compound 0.3162 µM", "value": 0.574},
      {"measurement": "relative viability", "setting": "[11]; first compound 1 µM", "value": 0.588},
      {"measurement": "relative viability", "setting": "[12]; first compound 0.01 µM", "value": 0.618},
      {"measurement": "relative viability", "setting": "[12]; first compound 0.03162 µM", "value": 0.586},
      {"measurement": "relative viability", "setting": "[12]; first compound 0.1 µM", "value": 0.473},
      {"measurement": "relative viability", "setting": "[12]; first compound 0.3162 µM", "value": 0.413},
      {"measurement": "relative viability", "setting": "[12]; first compound 1 µM", "value": 0.273}
    ]}
  ]
}
